Converted amounts (≈) assume the structure as drawn. Where a SMILES comes first, the peptide text is derived from it. [ ]: non-standard residue; d: D form. Nlys = NCCCCNCC(=O)O
Key:
[1] = tested on: HEK293 cells; assay: Cell viability assay by Alamar blue; details: read-out: Toxicity on HEK293 cells; CSV
Method: The data are represented as the mean value ± SD, n = 3. […] (c) Vesicle leakage assay for a selection of compounds. Lipid vesicles made of EYPG or EYPC were suspended in a buffer (10 mM TRIS, 107 mM NaCl, pH 7.4). After 45 s, the indicated compound was added to reach the desired concentration. After 240 s, 30 μL of 1.2% TritonX-100 was added for full fluorescein release. […] See Supporting Information for the full curves, all of the data, and procedures.
HEK293 cells were cultured and maintained in DMEM high glucose (Dulbecco’s modified Eagle medium, Sigma Aldrich) medium supplemented with 10% FBS (Sigma Aldrich) and 1% penicillin/streptomycin. A549 cells were cultured and maintained in RPMI-1640 medium (Sigma Aldrich), supplemented with 10% FBS (Sigma Aldrich) and 1% penicillin/streptomycin. The cells were handled and subcultured according to the manufacturer instructions. Cells were incubated in a humidified incubator at 37 °C in the presence of 5% CO2.
Assays on HEK293, A549 cells were performed as described earlier.[74] […]

[2] = tested on: ZEM-1A (clinical MDR P. aeruginosa isolate)
Procedure, shortened: (§1)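 MIC taken visually after MTT staining (20–30 min, RT) as the lowest compound concentration preventing growth, i.e. yellow wells. Inoculum ~5 × 10^5 CFU/well in MH broth, 37 °C static for ca. 18 h; polymyxin B control started at 16 μg/mL.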

[3] = tested on: ZEM9A (clinical MDR P. aeruginosa isolate)
Procedure, shortened: as §1

[4] = tested on: K. pneumoniae NCTC418
Procedure, shortened: (§2)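 MTT added (20–30 min, room temperature); MIC read by eye as lowest concentration inhibiting visible growth (yellow). Polymyxin B positive control from 16 μg/mL.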

[5] = tested on: PA14 4.18 (pmrB)
Procedure, shortened: as §1

[6] = tested on: PA14 4.13 (phoQ)
Procedure, shortened: as §1

[7] = tested on: P. aeruginosa PAO1
Procedure, shortened: as §1

[8] = tested on: A. baumannii ATCC19606
Procedure, shortened: as §2

[9] = tested on: S. aureus COL (MRSA)
Procedure, shortened: as §1

[10] = tested on: PA14 2P4 (pmrB)
Procedure, shortened: as §1

[11] = tested on: E. coli W3110
Procedure, shortened: as §1

[12] = tested on: K. pneumoniae OXA-48
Procedure, shortened: as §1

[13] = tested on: E. cloacae
Procedure, shortened: as §1

[14] = Circular dichroism, α-helical content; assay type: physicochemical; details: 0.1 mg/mL; for CD %α with 5 mM DPC: 10 mM phosphate buffer pH 7.4, 5 mM DPC; for CD %α with 20% TFE: 10 mM phosphate buffer pH 7.4, 20% TFE

CC(C)C[C@H](NC(=O)[C@H](CC(C)C)NC(=O)[C@H](CC(C)C)NC(=O)[C@H](CCCCN)NC(=O)[C@H](CC(C)C)NC(=O)[C@H](CC(C)C)NC(=O)CN(CCCCN)C(=O)[C@H](CC(C)C)NC(=O)[C@H](CC(C)C)NC(=O)CN(CCCCN)C(=O)CNCCCCN)C(N)=O [EB6, kkLLkLLKLLL] (H-[Nlys][Nlys]LL[Nlys]LLKLLL-NH2)
IC50 [1]: 54 ± 1 µM | MIC P. aeruginosa ZEM-1A, […] MH at pH 8.5 ([2]; CSV, […] MH at pH 8.5): 3 ug/mL | MIC P. aeruginosa ZEM-1A, full MH at pH 7.4 ([2]; CSV, full MH at pH 7.4): 2 ug/mL | MIC ZEM-1A ([2]; MH pH 7.4, 16–20 h at 37 °C): 2 µg/mL (≈ 1.51 µM) | MIC P. aeruginosa ZEM-1A ([2]; Table S3, […] MH at pH 8.5): 2 to 4 µg/mL | MIC P. aeruginosa ZEM9A, […] MH at pH 8.5 ([3]; CSV, […] MH at pH 8.5): 2 ug/mL | MIC P. aeruginosa ZEM9A, full MH at pH 7.4 ([3]; CSV, full MH at pH 7.4): 4 ug/mL | MIC ZEM9A ([3]; MH pH 7.4, 16–20 h at 37 °C): 4 µg/mL (≈ 3.03 µM) | MIC P. aeruginosa ZEM9A ([3]; Table S3, […] MH at pH 8.5): 2 µg/mL (≈ 1.51 µM) | MIC K. pneumoniae NCTC418, full MH at pH 7.4 ([4]; NCTC418, 4 h, pH 7.4): 8 ug/mL | MIC K. pneumoniae NCTC418, full MH at pH 8.5 ([4]; NCTC418, 4 h, pH 8.5): 12 ug/mL | MIC K. pneumoniae NCTC418 Full MH 8.5 ([4]; NCTC418, 4 h, pH 8.5): 8 to 16 µg/mL | MIC K. pneumoniae NCTC418 […] 7.4 ([4]; Table S2, […] MH, pH 7.4): 4 µg/mL (≈ 3.03 µM) | MIC K. pneumoniae NCTC418 […] 8.5 ([4]; Table S2, […] MH, pH 8.5): 2 µg/mL (≈ 1.51 µM) | MIC K. pneumoniae NCTC418 Full MH 7.4 ([4]; Table S2, full MH, pH 7.4): 8 µg/mL (≈ 6.05 µM) | MIC P. aeruginosa PA14 4.18, […] MH at pH 8.5 ([5]; CSV, […] MH at pH 8.5): 2 ug/mL | MIC P. aeruginosa PA14 4.18, full MH at pH 7.4 ([5]; CSV, full MH at pH 7.4): 16 ug/mL | MIC PA14 4.18 (pmrB) ([5]; MH pH 7.4, 16–20 h at 37 °C): 16 µg/mL (≈ 12.1 µM) | MIC P. aeruginosa PA14 4.18 ([5]; Table S3, […] MH at pH 8.5): 2 µg/mL (≈ 1.51 µM) | MIC P. aeruginosa PA14 4.13, […] MH at pH 8.5 ([6]; CSV, […] MH at pH 8.5): 2 ug/mL | MIC P. aeruginosa PA14 4.13, full MH at pH 7.4 ([6]; CSV, full MH at pH 7.4): 4 ug/mL | MIC PA14 4.13 (phoQ) ([6]; MH pH 7.4, 16–20 h at 37 °C): 4 µg/mL (≈ 3.03 µM) | MIC P. aeruginosa PA14 4.13 ([6]; Table S3, […] MH at pH 8.5): 2 µg/mL (≈ 1.51 µM) | MIC P. aeruginosa PAO1, full MH at pH 7.4 ([7]; PAO1, 4 h, pH 7.4): 4 ug/mL | MIC P. aeruginosa PAO1 […] 7.4 ([7]; Table S2, […] MH, pH 7.4): 2 µg/mL (≈ 1.51 µM) | MIC P. aeruginosa PAO1 […] 8.5 ([7]; Table S2, […] MH, pH 8.5): 4 µg/mL (≈ 3.03 µM) | MIC P. aeruginosa PAO1 Full MH 7.4 ([7]; Table S2, full MH, pH 7.4): 4 µg/mL (≈ 3.03 µM) | MIC P. aeruginosa PAO1 Full MH 8.5 ([7]; Table S2, full MH, pH 8.5): 16 µg/mL (≈ 12.1 µM) | MIC A. baumannii ATCC19606, full MH at pH 7.4 ([8]; ATCC19606, 4 h, pH 7.4): 2 ug/mL | MIC A. baumannii ATCC19606 […] 7.4 ([8]; Table S2, […] MH, pH 7.4): 2 µg/mL (≈ 1.51 µM) | MIC A. baumannii ATCC19606 […] 8.5 ([8]; Table S2, […] MH, pH 8.5): 2 µg/mL (≈ 1.51 µM) | MIC A. baumannii ATCC19606 Full MH 7.4 ([8]; Table S2, full MH, pH 7.4): 2 µg/mL (≈ 1.51 µM) | MIC A. baumannii ATCC19606 Full MH 8.5 ([8]; Table S2, full MH, pH 8.5): 8 µg/mL (≈ 6.05 µM) | MIC S. aureus COL (MRSA), full MH at pH 7.4 ([9]; COL, 4 h, pH 7.4): 8 ug/mL | MIC S. aureus COL (MRSA) […] 7.4 ([9]; Table S2, […] MH, pH 7.4): 2 µg/mL (≈ 1.51 µM) | MIC S. aureus COL (MRSA) […] 8.5 ([9]; Table S2, […] MH, pH 8.5): 2 µg/mL (≈ 1.51 µM) | MIC S. aureus COL (MRSA) Full MH 7.4 ([9]; Table S2, full MH, pH 7.4): 8 µg/mL (≈ 6.05 µM) | MIC S. aureus COL (MRSA) Full MH 8.5 ([9]; Table S2, full MH, pH 8.5): 16 µg/mL (≈ 12.1 µM) | MIC P. aeruginosa PA14 2P4, […] MH at pH 8.5 ([10]; CSV, […] MH at pH 8.5): 2 ug/mL | MIC P. aeruginosa PA14 2P4, full MH at pH 7.4 ([10]; CSV, full MH at pH 7.4): 32 ug/mL | MIC PA14 2P4 (pmrB) ([10]; MH pH 7.4, 16–20 h at 37 °C): 32 µg/mL (≈ 24.2 µM) | MIC P. aeruginosa PA14 2P4 ([10]; Table S3, […] MH at pH 8.5): 2 µg/mL (≈ 1.51 µM) | MIC E. coli W3110, […] MH at pH 7.4 ([11]; CSV, […] MH at pH 7.4): 2 ug/mL | MIC E. coli W3110, […] MH at pH 8.5 ([11]; CSV, […] MH at pH 8.5): 2 ug/mL | MIC E. coli W3110, full MH at pH 7.4 ([11]; CSV, full MH at pH 7.4): 2 ug/mL | MIC E. coli W3110 […] 7.4 ([11]; Table S2, […] MH, pH 7.4): 2 µg/mL (≈ 1.51 µM) | MIC E. coli W3110 […] 8.5 ([11]; Table S2, […] MH, pH 8.5): 2 µg/mL (≈ 1.51 µM) | MIC E. coli W3110 Full MH 7.4 ([11]; Table S2, full MH, pH 7.4): 2 µg/mL (≈ 1.51 µM) | MIC E. coli W3110 Full MH 8.5 ([11]; Table S2, full MH, pH 8.5): 8 µg/mL (≈ 6.05 µM) | MIC E. coli W3110 […] ([11]; diluted MH ([…] MH, pH 8.5) per Table 1 footnote b, 16–20 h at 37 °C): 2 µg/mL (≈ 1.51 µM) | MIC K. pneumoniae OXA-48, […] MH at pH 8.5 ([12]; CSV, […] MH at pH 8.5): 8 ug/mL | MIC K. pneumoniae OXA-48, full MH at pH 7.4 ([12]; CSV, full MH at pH 7.4): 8 ug/mL | MIC K. pneumoniae OXA-48 ([12]; Table S3, […] MH at pH 8.5): 8 µg/mL (≈ 6.05 µM) | MIC E. cloacae, full MH at pH 7.4 ([13]; 4 h, pH 7.4): 4 ug/mL | MIC E. cloacae ([13]; Table S3, […] MH at pH 8.5): 4 µg/mL (≈ 3.03 µM) | CD %α with 5 mM DPC ([14]; DichroWeb, Contin-LL): 41% | CD %α with 20% TFE ([14]; DichroWeb, Contin-LL): 35% | CD %α with 5 mM DPC ([14]; Table S2): 41% | CD %α with 20% TFE ([14]; Table S2): 35%

Reference: publication PMC10714400, “Antimicrobial Peptide–Peptoid Hybrids with and without Membrane Disruption” (ACS Infectious Diseases, 2023)
